Like-named read-outs stand apart in the source and are kept apart here.
Experiments:
PIM1 = PIM1 (Homo sapiens (Human), UniProt P11309); assay: Pim kinase inhibition, PIM1 LC3K (Example 901); format: biochemical
Excerpt: Determination of the Pim kinase activity of a Formula I compound is possible by a number of direct and indirect detection methods.

BaF3 parental cells = assay: In vitro cell proliferation, BaF3 parental line + IL3 (CellTiter-Glo); format: cell-based, murine; conditions: Mus musculus, BaF3, BaF3 parental cells with IL-3, incubated overnight
[1] = system: MM1.S (multiple myeloma) cells; assay: In vitro cell proliferation, MM1.S multiple myeloma cells (CellTiter-Glo, ATP); format: cell-based; conditions: Homo sapiens, MM1.S, 72 h, read-out: Prolif MM1S ATP (EC50)
Summary of the method: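 BaF3 parental cells (medium with 2 ng/mL mIL-3) seeded at 2 k/well and MM1.S at 10 k/well, then exposed to test compound at 37° C, 5% CO2: BaF3 overnight, MM1.S for 72 hours. Viability read by CellTiter-Glo; IC50/EC50 values calculated.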

BaF3 PIM1 cells = assay: cells; conditions: Mus musculus
Description: BaF3 parental line was obtained from the DSMZ repository. BaF3 lines transfected with PIM 1 or PIM2 were generated. Mouse IL-3 was purchased from R&D Systems. G418 was purchased from Clontech. Media for BaF3 parental line contained RPMI, 10% FBS, 2 mM L-Glutamine, 2 ng/mL mIL-3. Media for BaF3 PIM1 & 2 lines contained RPMI, 10% FBS, 2 mM L-Glutamine, 250 μg/mL.
BaF3, a murine interleukin-3 dependent pro-B cell line, parental cells, BaF3 PIM1 cells, BaF3 PIM2 cells, and MM1.S (multiple myeloma) cells were seeded at 2 k/well, 5 k/well, 5 k/well, and 10 k/well respectively, in a 384-well plate, at 45 μL/well. Test compound was added at 5 μL/well. BaF3 cells (parental and transfected) were incubated overnight, while MM1.S cells were incubated for 72 hours at 37° C., 5% CO2. CELL TITER GLO® Reagent (Promega) was added at 50 μL/well, the plates were incubated for 30 minutes, and their luminescence read on an HT Analyst. IC50/EC50 values for the test compound were calculated.

[2] = read-out: Prolif BaF3 + IL3 (IC50)
[3] = BaF3, read-out: Prolif BaF3_PIM1 (IC50), BaF3 PIM1 cells, incubated overnight
[4] = read-out: Prolif BaF3 IL3 (IC50)
[5] = BaF3, read-out: Prolif BaF3 PIM1 (IC50), BaF3 PIM1 cells, incubated overnight

Sequence of PIM1 (P11309 whole entry): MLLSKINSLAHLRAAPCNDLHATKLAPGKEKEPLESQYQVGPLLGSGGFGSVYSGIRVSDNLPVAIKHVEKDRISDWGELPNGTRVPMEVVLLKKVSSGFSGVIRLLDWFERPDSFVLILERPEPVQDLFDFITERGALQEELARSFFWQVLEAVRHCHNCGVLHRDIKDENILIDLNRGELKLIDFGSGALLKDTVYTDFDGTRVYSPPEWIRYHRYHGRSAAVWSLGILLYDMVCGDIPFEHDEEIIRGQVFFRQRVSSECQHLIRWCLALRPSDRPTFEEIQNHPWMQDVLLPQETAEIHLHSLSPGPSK

Compound | Ki (PIM1) [nM] | IC50 (BaF3 parental cells; [2]) [nM] | EC50 [1] [nM] | IC50 (BaF3 PIM1 cells; [3]) [nM] | IC50 (BaF3 parental cells; [4]) [nM] | IC50 (BaF3 PIM1 cells; [5]) [nM]
Nc1sc(-c2c(F)cccc2F)nc1C(=O)Nc1cnn(C2CC2)c1N1CC[C@H](N)CC(F)(F)C1 [Example 344, 5-amino-N-[5-[(5S)-5-amino-3,3-difluoro-azepan-1-yl]-1-cyclopropyl-pyrazol-4-yl]-2-(2,6-difluorophenyl)thiazole-4-carboxamide] | 0.01 | 5200 | 1200 | 83.6 |  | 
Cn1ncc(NC(=O)c2nc(-c3cccc(C#N)n3)sc2N)c1N1CC[C@@H](N)CC(F)(F)C1 [Example 461, 5-amino-N-[5-[(5R)-5-amino-3,3-difluoro-azepan-1-yl]-1-methyl-pyrazol-4-yl]-2-(6-cyano-2-pyridyl)thiazole-4-carboxamide] | 0.08 | 16600 | 211 | 39.7 |  | 
Cn1ncc(NC(=O)c2nc(-c3ccccc3F)sc2N)c1N1CCNC[C@]2(CCO2)C1 (single isomer, unassigned) [Example 480] | 0.045 | 7100 | 6200 | 737 |  | 
Cn1ncc(NC(=O)c2nc(-c3c(F)ccc(C4CC4)c3F)sc2N)c1N1CCC[C@@H](N)CC1 [Example 115, (R)-5-amino-N-(5-(4-aminoazepan-1-yl)-1-methyl-1H-pyrazol-4-yl)-2-(3-cyclopropyl-2,6-difluorophenyl)thiazole-4-carboxamide] | 0.015 |  | 420 |  | 5800 | 86.3
CN[C@@H]1CCCN(c2c(NC(=O)c3nc(-c4cc(C)ccc4F)sc3N)cnn2CC(F)F)CC1 [Example 109, (R)-5-Amino-N-(1-(2,2-difluoroethyl)-5-(4-(methylamino)azepan-1-yl)-1H-pyrazol-4-yl)-2-(2-fluoro-5-methylphenyl)thiazole-4-carboxamide] | 0.097 |  | 3900 |  | 5100 | 778
Nc1sc(-c2c(F)cccc2F)nc1C(=O)Nc1cnn(C2CC2)c1N1CC[C@@H](N)CC(F)(F)C1 [Example 345, 5-amino-N-[5-[(5R)-5-amino-3,3-difluoro-azepan-1-yl]-1-cyclopropyl-pyrazol-4-yl]-2-(2,6-difluorophenyl)thiazole-4-carboxamide] | 0.007 | 8400 | 136 | 81.3 |  | 
COc1cc(F)c(-c2nc(C(=O)Nc3cnn(C)c3N3CCC(N)CC(F)(F)C3)c(N)s2)c(F)c1 (centres unmarked) [Example 459, 5-amino-N-[5-(5-amino-3,3-difluoro-azepan-1-yl)-1-methyl-pyrazol-4-yl]-2-(2,6-difluoro-4-methoxy-phenyl)thiazole-4-carboxamide] | 0.006 | 7500 | 492 | 6.84 |  | 
Cn1ncc(NC(=O)c2nc(-c3ccccn3)sc2N)c1N1CCNCC(F)(F)C1 [Example 223, 5-amino-N-(5-(6,6-difluoro-1,4-diazepan-1-yl)-1-methyl-1H-pyrazol-4-yl)-2-(pyridin-2-yl)thiazole-4-carboxamide] | 0.206 |  | 20200 |  | 12500 | 547
COc1ncccc1-c1nc(C(=O)Nc2cnn(C)c2N2CCC[C@H](N)CC2)c(N)s1 [Example 418, 5-amino-N-[5-[(4S)-4-aminoazepan-1-yl]-1-methyl-pyrazol-4-yl]-2-(2-methoxy-3-pyridyl)thiazole-4-carboxamide] | 1.08 | > 25000 | 7000 | 1400 |  | 
Cn1ncc(NC(=O)c2nc(-c3c(F)cncc3F)sc2N)c1N1CC[C@H](N)[C@@H](F)CC1 (stereo in doubt) [Example 472, 5-amino-N-[5-[(4S,5S)-4-amino-5-fluoro-azepan-1-yl]-1-methyl-pyrazol-4-yl]-2-(3,5-difluoro-4-pyridyl)thiazole-4-carboxamide] | 0.086 | 18500 | 5600 | 64.8 |  | 
Cc1cc(-c2nc(C(=O)Nc3cnn(C)c3N3CC[C@@H](N)CC(F)(F)C3)c(N)s2)ccn1 [Example 464, 5-amino-N-[5-[(5R)-5-amino-3,3-difluoro-azepan-1-yl]-1-methyl-pyrazol-4-yl]-2-(2-methyl-4-pyridyl)thiazole-4-carboxamide] | 0.06 | 15900 | 467 | 11.9 |  | 
COC1CCN(c2c(NC(=O)c3nc(-c4cc(C)ccc4F)sc3N)cnn2C)CCC1N (centres unmarked) [Example 325, 5-amino-N-[5-(4-amino-5-methoxy-azepan-1-yl)-1-methyl-pyrazol-4-yl]-2-(2-fluoro-5-methyl-phenyl)thiazole-4-carboxamide] | 0.153 | 16600 | 752 | 191 |  | 
Nc1sc(-c2cc(F)ccc2F)nc1C(=O)Nc1cnn(CC(F)F)c1N1CCC[C@@H](N)CC1 [Example 161, (R)-5-amino-N-(5-(4-aminoazepan-1-yl)-1-(2,2-difluoroethyl)-1H-pyrazol-4-yl)-2-(2,5-difluorophenyl)thiazole-4-carboxamide] | 0.12 |  | 160 |  | 6000 | 404
Cn1ncc(NC(=O)c2nc(-c3c(F)cccc3F)sc2N)c1N1CCC(N)C2(CCO2)CC1 (centres unmarked) [Example 510, 5-amino-N-[5-(5-amino-1-oxa-8-azaspiro[3.6]decan-8-yl)-1-methyl-pyrazol-4-yl]-2-(2,6-difluorophenyl)thiazole-4-carboxamide] | 0.095 | 22000 | 5600 | 623 |  | 
Cc1ccc(F)c(-c2nc(C(=O)Nc3cnn(C)c3N3CCC[C@@H](N)CC3)c(N)s2)c1F [Example 116, (R)-5-amino-N-(5-(4-aminoazepan-1-yl)-1-methyl-1H-pyrazol-4-yl)-2-(2,6-difluoro-3-methylphenyl)thiazole-4-carboxamide] | 0.01 |  | 122 |  | 8100 | 63.6
Nc1sc(-c2c(F)cccc2F)nc1C(=O)Nc1cnn(C2CC2)c1N1CCC(N)C(F)CC1 (single isomer, unassigned) [Example 331, 5-amino-N-[5-(4-amino-5-fluoro-azepan-1-yl)-1-cyclopropyl-pyrazol-4-yl]-2-(2,6-difluorophenyl)thiazole-4-carboxamide] | 0.0647 | 13400 | 167 | 152 |  | 
Cc1nn(C)cc1-c1nc(C(=O)Nc2cnn(C)c2N2CC[C@@H](N)CC(F)(F)C2)c(N)s1 [Example 462, 5-amino-N-[5-[(5R)-5-amino-3,3-difluoro-azepan-1-yl]-1-methyl-pyrazol-4-yl]-2-(1,3-dimethylpyrazol-4-yl)thiazole-4-carboxamide] | 0.03 | 8000 | 1200 | 32.6 |  | 
Cn1ncc(NC(=O)c2nc(-c3c(F)cccc3F)sc2N)c1N1CC[C@H](N)CC(F)(F)C1 [Example 166, (S)-5-amino-N-(5-(5-amino-3,3-difluoroazepan-1-yl)-1-methyl-1H-pyrazol-4-yl)-2-(2,6-difluorophenyl)thiazole-4-carboxamide] |  |  | 22.9 |  | 13400 | 16.5
Cn1ncc(NC(=O)c2nc(-c3c(F)cccc3F)sc2N)c1N1CC[C@@H](N)CC(F)(F)C1 [Example 167, (R)-5-amino-N-(5-(5-amino-3,3-difluoroazepan-1-yl)-1-methyl-1H-pyrazol-4-yl)-2-(2,6-difluorophenyl)thiazole-4-carboxamide] |  |  | 1400 |  | > 25000 | 48.4

— patent US8614206B2 (Genentech, Inc., priority 2011, dated 2013)
